Assay results reported in US11472811B2, “Pyrazolotriazolopyrimidine derivatives as A2A receptor antagonist” (BEIGENE, LTD., priority 2018, dated 2022).

The compounds below were run against human A2A receptor (A2AR) (Homo sapiens (Human), UniProt P29274) (assay: Luciferase reporter assay (HEK293-A2AR-luc2p/CRE/Hygro cells)). Conditions: 3 nM CGS21680, 5 h incubation.
Type: cell-based
Method: HEK293 cells were maintained in Dulbecco's modified Eagle's medium (DMEM, Gibco) supplemented with 10% fetal bovine serum (FBS, Thermo Scientific), 100 units/mL penicillin (Gibco), and 0.1 mg/mL streptomycin (Gibco) in a humidified 37° C. environment with 5% CO2. Plasmid encoding wild-type human A2A receptor (A2AR) (in pcDNA3.1) was synthesized by Genscript (Nanjing, China). Transfection of the plasmids was performed in 6-well plates with 4×10^5 cells using Lipofectamin 2000 (ThermoFisher Scientific) according to the instruction of the manufacturer. Cell clones that stably express A2AR were established and maintained in the same complete medium as the HEK293 cells in addition of G-418 (Gibico). Expression level of A2AR in each single cell clone was determined using immunoblotting and FACS method. HEK293-A2AR stable cells were then transfected with pGL4.29[luc2P/CRE/Hygro] (Promega) luciferase reporter plasmid for establishing the HEK293-A2AR-luc2p/CRE/Hygro stable cell line.
HEK293-A2AR-luc2p/CRE/Hygro cells were seeded at a density of 5,000 cells/well in DMEM with 1% FBS and 1 U/mL adenosine deaminase (ADA) (Sigma). After 18 h, the cells were treated with 3 nM CGS21680 plus a series dilution of A2AR antagonist, the compounds disclosed herein at the concentration of 0.1˜10000 nM, prepared in DMEM with 1% FBS. After 5 h incubation, the luciferase activity in cells were measured using the Bright-Glo Luciferase Assay System (Promega) according to manufacturer's instructions. The luminescence signal was measured using a PHERAstar FS plate reader (BMG Labtech). […] Maximal luminescence intensity was determined in the presence of 3 nM CGS21680 and was set as 100%. The IC50 value was calculated from a dose dependent inhibition curve across the range of compound concentrations.

Chain of human A2A receptor (A2AR) (P29274 whole entry): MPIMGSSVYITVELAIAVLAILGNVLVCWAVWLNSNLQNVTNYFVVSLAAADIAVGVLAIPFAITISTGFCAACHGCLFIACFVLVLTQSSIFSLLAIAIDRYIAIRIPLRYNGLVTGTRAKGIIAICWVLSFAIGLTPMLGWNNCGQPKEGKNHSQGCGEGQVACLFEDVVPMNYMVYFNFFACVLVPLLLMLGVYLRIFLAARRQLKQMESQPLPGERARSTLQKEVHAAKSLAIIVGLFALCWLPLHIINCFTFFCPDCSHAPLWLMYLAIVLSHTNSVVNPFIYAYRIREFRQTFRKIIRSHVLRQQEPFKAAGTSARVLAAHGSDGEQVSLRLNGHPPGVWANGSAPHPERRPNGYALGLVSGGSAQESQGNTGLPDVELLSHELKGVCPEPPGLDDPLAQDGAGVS

**Q.** With `Nc1nc2c(cnn2C(C(=O)N[C@H]2CC[C@@H](O)CC2)c2ccccc2)c2nc(-c3ccco3)nn12` (mixture of isomers) [Example 92, 2-(5-amino-2-(furan-2-yl)-7H-pyrazolo[4,3-e][1,2,4]triazolo[1,5-c]pyrimidin-7-yl)-(cis)-N-(4-hydroxycyclohexyl)-2-phenylacetamide] as the compound, how does the IC50 read?
**A.** 12.4 nM

**Q.** Which IC50 does the source give for `CC(C(=O)N[C@H]1CC[C@H](O)CC1)(c1ccccc1)n1ncc2c1nc(N)n1nc(-c3ccco3)nc21` (relative stereo) [Example 52, 2-(5-amino-2-(furan-2-yl)-7H-pyrazolo[4,3-e][1,2,4]triazolo[1,5-c]pyrimidin-7-yl)-(trans)-N-(4-hydroxycyclohexyl)-2-phenylpropanamide] here?
**A.** 6.7 nM

**Q.** How did the IC50 turn out when `CC(C(=O)N[C@H]1CC[C@@H](O)CC1)(c1ccccc1)n1ncc2c1nc(N)n1nc(-c3ccco3)nc21` (relative stereo) [Example 76, 2-(5-amino-2-(furan-2-yl)-7H-pyrazolo[4,3-e][1,2,4]triazolo[1,5-c]pyrimidin-7-yl)-(cis)-N-(4-hydroxycyclohexyl)-2-phenylpropanamide] was run?
**A.** 5.2 nM

**Q.** How did the IC50 turn out when `CC(C(=O)N[C@H]1C[C@H](O)C1)(c1ccccc1)n1ncc2c1nc(N)n1nc(-c3ccco3)nc21` (relative stereo) [Example 102, 2-(5-amino-2-(furan-2-yl)-7H-pyrazolo[4,3-e][1,2,4]triazolo[1,5-c]pyrimidin-7-yl)-(trans)-N-(3-hydroxycyclobutyl)-2-phenylpropanamide] was run?
**A.** 13.3 nM

**Q.** How did the IC50 turn out when `COc1ccccc1C(C)(C(=O)N[C@H]1CC[C@@H](O)CC1)n1ncc2c1nc(N)n1nc(-c3ccco3)nc21` (relative stereo) [Example 139, 2-(5-amino-2-(furan-2-yl)-7H-pyrazolo[4,3-e][1,2,4]triazolo[1,5-c]pyrimidin-7-yl)-N-((cis)-4-hydroxycyclohexyl)-2-(2-methoxyphenyl)propanamide] was run?
**A.** 1.9 nM

**Q.** Which IC50 does the source give for `C[C@](C(=O)N[C@H]1CC[S@@+]([O-])CC1)(c1ccccc1)n1ncc2c1nc(N)n1nc(-c3ccco3)nc21` (single isomer, unassigned) [Example 146B-1] here?
**A.** 39.3 nM

**Q.** With `C[C@](C(=O)NC1CC[S+]([O-])CC1)(c1ccccc1)n1ncc2c1nc(N)n1nc(-c3ccco3)nc21` (single isomer, unassigned) [Example 146B-2] as the compound, how does the IC50 read?
**A.** 43.9 nM

**Q.** How did the IC50 turn out when `CC1(O)CCC(NC(=O)[C@](C)(c2ccccc2)n2ncc3c2nc(N)n2nc(-c4ccco4)nc32)CC1` (stereo in doubt) [Example 33A, (S)-2-(5-amino-2-(furan-2-yl)-7H-pyrazolo[4,3-e][1,2,4]triazolo[1,5-c]pyrimidin-7-yl)-(trans)-N-(4-hydroxy-4-methylcyclohexyl)-2-phenylpropanamide] was run?
**A.** 13.2 nM

**Q.** For `CC1(O)CCC(NC(=O)[C@@](C)(c2ccccc2)n2ncc3c2nc(N)n2nc(-c4ccco4)nc32)CC1` (stereo in doubt) [Example 33B, (R)-2-(5-amino-2-(furan-2-yl)-7H-pyrazolo[4,3-e][1,2,4]triazolo[1,5-c]pyrimidin-7-yl)-(trans)-N-(4-hydroxy-4-methylcyclohexyl)-2-phenylpropanamide], which IC50 is on record?
**A.** 2.3 nM

**Q.** How did the IC50 turn out when `CC1(O)CCC(NC(=O)[C@](C)(c2ccccc2)n2ncc3c2nc(N)n2nc(-c4ccco4)nc32)CC1` (stereo in doubt) [Example 69A, (S)-2-(5-amino-2-(furan-2-yl)-7H-pyrazolo[4,3-e][1,2,4]triazolo[1,5-c]pyrimidin-7-yl)-(cis)-N-(4-hydroxy-4-methylcyclohexyl)-2-phenylpropanamide] was run?
**A.** 41.6 nM

**Q.** `CC1(O)CC(NC(=O)[C@@](C)(c2ccccc2)n2ncc3c2nc(N)n2nc(-c4ccco4)nc32)C1` (stereo in doubt) [Example 105B, (R)-2-(5-amino-2-(furan-2-yl)-7H-pyrazolo[4,3-e][1,2,4]triazolo[1,5-c]pyrimidin-7-yl)-(cis)-N-(3-hydroxy-3-methylcyclobutyl)-2-phenylpropanamide] was tested. Which IC50 did it give?
**A.** 5 nM

**Q.** Which IC50 does the source give for `Nc1nc2c(cnn2C(C(=O)NCc2ccccc2)c2ccccc2)c2nc(-c3ccco3)nn12` (stereo not shown) [Example 1, 2-(5-amino-2-(furan-2-yl)-7H-pyrazolo[4,3-e][1,2,4]triazolo[1,5-c]pyrimidin-7-yl)-N-benzyl-2-phenylacetamide] here?
**A.** 1.4 nM

**Q.** Which IC50 does the source give for `Nc1nc2c(cnn2C(C(=O)NC2CCCCC2)c2ccccc2)c2nc(-c3ccco3)nn12` (stereo not shown) [Example 2, 2-(5-amino-2-(furan-2-yl)-7H-pyrazolo[4,3-e][1,2,4]triazolo[1,5-c]pyrimidin-7-yl)-N-cyclohexyl-2-phenylacetamide] here?
**A.** 11.9 nM

**Q.** Which IC50 does the source give for `Nc1nc2c(cnn2C(C(=O)Nc2ccccc2)c2ccccc2)c2nc(-c3ccco3)nn12` (stereo not shown) [Example 3, 2-(5-amino-2-(furan-2-yl)-7H-pyrazolo[4,3-e][1,2,4]triazolo[1,5-c]pyrimidin-7-yl)-N,2-diphenylacetamide] here?
**A.** 5.2 nM

**Q.** Which IC50 does the source give for `CNC(=O)C(c1ccccc1)n1ncc2c1nc(N)n1nc(-c3ccco3)nc21` (stereo not shown) [Example 4, 2-(5-amino-2-(furan-2-yl)-7H-pyrazolo[4,3-e][1,2,4]-triazolo[1,5-c]pyrimidin-7-yl)-N-methyl-2-phenylacetamide] here?
**A.** 3.8 nM

**Q.** `CCNC(=O)C(c1ccccc1)n1ncc2c1nc(N)n1nc(-c3ccco3)nc21` (stereo not shown) [Example 5, 2-(5-amino-2-(furan-2-yl)-7H-pyrazolo[4,3-e][1,2,4]triazolo[1,5-c]pyrimidin-7-yl)-N-ethyl-2-phenylacetamide] was tested. Which IC50 did it give?
**A.** 7 nM

**Q.** For `CCOc1ccccc1CNC(=O)C(c1ccccc1)n1ncc2c1nc(N)n1nc(-c3ccco3)nc21` (stereo not shown) [Example 6, 2-(5-amino-2-(furan-2-yl)-7H-pyrazolo[4,3-e][1,2,4]triazolo[1,5-c]pyrimidin-7-yl)-N-(2-triethoxybenzyl)-2-phenylacetamide], which IC50 is on record?
**A.** 0.9 nM

**Q.** Which IC50 does the source give for `Nc1nc2c(cnn2C(C(=O)NCc2ccccc2F)c2ccccc2)c2nc(-c3ccco3)nn12` (stereo not shown) [Example 7, 2-(5-amino-2-(furan-2-yl)-7H-pyrazolo[4,3-e][1,2,4]triazolo[1,5-c]pyrimidin-7-yl)-N-(2-fluorobenzyl)-2-phenylacetamide] here?
**A.** 1.5 nM

**Q.** `Nc1nc2c(cnn2C(C(=O)NCc2ccccc2OC(F)(F)F)c2ccccc2)c2nc(-c3ccco3)nn12` (stereo not shown) [Example 8, 2-(5-amino-2-(furan-2-yl)-7H-pyrazolo[4,3-e][1,2,4]triazolo[1,5-c]pyrimidin-7-yl)-2-phenyl-N-(2-(trifluoromethoxy)benzyl)acetamide] was tested. Which IC50 did it give?
**A.** 2 nM

**Q.** How did the IC50 turn out when `C[C@H](NC(=O)C(c1ccccc1)n1ncc2c1nc(N)n1nc(-c3ccco3)nc21)c1ccccc1` (stereo partly drawn) [Example 9, 2-(5-amino-2-(furan-2-yl)-7H-pyrazolo[4,3-e][1,2,4]triazolo[1,5-c]pyrimidin-7-yl)-2-phenyl-N—((S)-1-phenylethy)acetamide] was run?
**A.** 31.9 nM

**Q.** With `C[C@@H](NC(=O)C(c1ccccc1)n1ncc2c1nc(N)n1nc(-c3ccco3)nc21)c1ccccc1` (stereo partly drawn) [Example 10, 2-(5-amino-2-(furan-2-yl)-7H-pyrazolo[4,3-e][1,2,4]triazolo[1,5-c]pyrimidin-7-yl)-2-phenyl-N—((R)-1-phenylethyl)acetamide] as the compound, how does the IC50 read?
**A.** 16.5 nM

**Q.** `Nc1nc2c(cnn2C(C(=O)NC2CCOCC2)c2ccccc2)c2nc(-c3ccco3)nn12` (stereo not shown) [Example 11, 2-(5-amino-2-(furan-2-yl)-7H-pyrazolo[4,3-e][1,2,4]triazolo[1,5-c]pyrimidin-7-yl)-2-phenyl-N-(tetrahydro-2H-pyran-4-yl)acetamide] was tested. Which IC50 did it give?
**A.** 36 nM
